According to ChEMBL document CHEMBL4421717, “Antagonists and agonists of bitter taste receptors and uses thereof” (2012):
The source made the active and inactive calls. The calls are words filed in the database; no cut-off is given here.

What was measured:
Format in all cases: functional, cell-based
[1] = target: T1, Taste receptor type 2 member 14 (Homo sapiens) (UniProt Q9NYV8); assay: Agonist activity at recombinant human N-terminal rat ST3 receptor-fused TAS2R14 expressed in HEK293T cells co-expressing Galpha16gust44 assessed as effect on intracellular calcium level at 100 uM by FLIPR assay
T1 sequence (whole entry): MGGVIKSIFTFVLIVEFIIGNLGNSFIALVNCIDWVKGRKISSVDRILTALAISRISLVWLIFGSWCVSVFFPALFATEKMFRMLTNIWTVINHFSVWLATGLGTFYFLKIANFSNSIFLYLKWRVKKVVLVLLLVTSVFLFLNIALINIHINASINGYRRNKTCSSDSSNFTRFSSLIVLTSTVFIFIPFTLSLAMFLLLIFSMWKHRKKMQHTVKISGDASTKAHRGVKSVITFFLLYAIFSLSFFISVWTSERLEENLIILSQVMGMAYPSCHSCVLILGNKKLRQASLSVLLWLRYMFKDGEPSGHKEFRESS

[2] = target: T2, Taste receptor type 2 member 46 (Homo sapiens) (UniProt P59540); assay: Agonist activity at recombinant human N-terminal rat ST3 receptor-fused TAS2R46 expressed in HEK293T cells co-expressing Galpha16gust44 assessed as effect on intracellular calcium level at 100 uM by FLIPR assay
T2 sequence (whole entry): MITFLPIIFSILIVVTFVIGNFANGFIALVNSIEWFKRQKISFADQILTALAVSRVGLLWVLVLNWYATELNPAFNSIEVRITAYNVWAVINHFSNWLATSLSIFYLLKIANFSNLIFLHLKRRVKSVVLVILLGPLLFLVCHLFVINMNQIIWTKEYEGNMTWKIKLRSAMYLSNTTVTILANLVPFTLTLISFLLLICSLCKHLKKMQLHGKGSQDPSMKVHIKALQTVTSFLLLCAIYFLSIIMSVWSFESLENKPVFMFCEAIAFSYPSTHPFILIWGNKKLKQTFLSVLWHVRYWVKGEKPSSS

[3] = target: T3, Taste receptor type 2 member 16 (Homo sapiens) (UniProt Q9NYV7); assay: Activity at recombinant human N-terminal rat ST3 receptor-fused TAS2R16 expressed in HEK293T cells co-expressing Galpha16gust44 assessed as effect on D-salicin-induced intracellular calcium level at 100 uM by FLIPR assay
T3 sequence (whole entry): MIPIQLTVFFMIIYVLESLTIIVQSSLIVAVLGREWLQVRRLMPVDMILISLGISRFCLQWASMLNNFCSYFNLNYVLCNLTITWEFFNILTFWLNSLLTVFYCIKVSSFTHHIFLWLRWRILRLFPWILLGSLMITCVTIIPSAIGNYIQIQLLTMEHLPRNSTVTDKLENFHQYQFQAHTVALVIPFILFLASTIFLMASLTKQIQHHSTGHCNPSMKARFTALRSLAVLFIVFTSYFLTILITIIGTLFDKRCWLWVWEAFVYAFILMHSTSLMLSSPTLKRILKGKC

[4] = target: T4, Taste receptor type 2 member 38 (Homo sapiens) (UniProt P59533); assay: Activity at recombinant human N-terminal rat ST3 receptor-fused TAS2R38 expressed in HEK293T cells co-expressing Galpha16gust44 assessed as effect on phenylthiocarbamide-induced intracellular calcium level at 100 uM by FLIPR assay
T4 sequence (whole entry): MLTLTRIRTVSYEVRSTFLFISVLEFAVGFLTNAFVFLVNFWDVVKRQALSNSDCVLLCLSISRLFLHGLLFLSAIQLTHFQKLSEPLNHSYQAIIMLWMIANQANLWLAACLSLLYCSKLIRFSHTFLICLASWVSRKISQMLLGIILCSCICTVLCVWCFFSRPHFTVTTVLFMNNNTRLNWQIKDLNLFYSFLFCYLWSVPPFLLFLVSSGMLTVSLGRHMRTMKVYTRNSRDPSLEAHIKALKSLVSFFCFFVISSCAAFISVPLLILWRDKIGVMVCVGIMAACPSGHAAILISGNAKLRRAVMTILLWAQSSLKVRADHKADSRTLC

[5] = target: T5, Taste receptor type 2 member 20 (Homo sapiens) (UniProt P59543); assay: Activity at recombinant human N-terminal rat ST3 receptor-fused TAS2R49 expressed in HEK293T cells co-expressing Galpha16gust44 assessed as effect on cromolyn-induced intracellular calcium level at 100 uM by FLIPR assay
T5 sequence (whole entry): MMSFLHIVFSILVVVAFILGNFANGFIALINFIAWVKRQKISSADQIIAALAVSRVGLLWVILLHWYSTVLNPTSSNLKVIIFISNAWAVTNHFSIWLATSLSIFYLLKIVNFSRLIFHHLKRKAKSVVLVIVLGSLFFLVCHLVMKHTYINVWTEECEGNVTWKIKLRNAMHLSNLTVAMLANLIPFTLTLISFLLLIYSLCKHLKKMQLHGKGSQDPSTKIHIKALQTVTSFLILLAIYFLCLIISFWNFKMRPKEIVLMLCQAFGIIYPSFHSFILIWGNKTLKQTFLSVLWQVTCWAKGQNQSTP

[6] = target: T6, Taste receptor type 2 member 50 (Homo sapiens) (UniProt P59544); assay: Activity at recombinant human N-terminal rat ST3 receptor-fused TAS2R50 expressed in HEK293T cells co-expressing Galpha16gust44 assessed as effect on andrographolide-induced intracellular calcium level at 100 uM by FLIPR assay
T6 sequence (whole entry): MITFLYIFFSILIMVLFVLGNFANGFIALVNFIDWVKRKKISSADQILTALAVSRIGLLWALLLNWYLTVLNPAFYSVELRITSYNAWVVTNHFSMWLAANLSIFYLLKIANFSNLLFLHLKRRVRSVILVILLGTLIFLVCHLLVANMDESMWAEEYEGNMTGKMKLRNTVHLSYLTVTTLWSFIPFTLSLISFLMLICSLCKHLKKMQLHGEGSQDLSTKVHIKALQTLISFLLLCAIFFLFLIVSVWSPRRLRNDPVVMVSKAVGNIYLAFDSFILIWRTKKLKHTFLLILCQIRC

[7] = target: T2, Taste receptor type 2 member 46 (Homo sapiens); assay: Antagonist activity at recombinant human N-terminal rat ST3 receptor-fused TAS2R46 expressed in HEK293T cells co-expressing Galpha16gust44 assessed as inhibition of picrotoxinin-induced intracellular calcium level at 100 uM by FLIPR assay
[8] = target: T7, Taste receptor type 2 member 30 (Homo sapiens) (UniProt P59541); assay: Antagonist activity at recombinant human N-terminal rat ST3 receptor-fused TAS2R47 expressed in HEK293T cells co-expressing Galpha16gust44 assessed as inhibition of brucine-induced intracellular calcium level at 100 uM by FLIPR assay
T7 sequence (whole entry): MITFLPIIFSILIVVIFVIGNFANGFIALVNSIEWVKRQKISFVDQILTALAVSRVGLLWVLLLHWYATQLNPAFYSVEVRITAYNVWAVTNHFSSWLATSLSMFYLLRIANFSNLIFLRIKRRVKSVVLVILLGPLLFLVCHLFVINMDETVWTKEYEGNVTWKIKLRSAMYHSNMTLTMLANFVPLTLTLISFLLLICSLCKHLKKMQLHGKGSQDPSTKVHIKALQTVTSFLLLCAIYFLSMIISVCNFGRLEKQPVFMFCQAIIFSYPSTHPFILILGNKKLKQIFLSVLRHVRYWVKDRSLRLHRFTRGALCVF

SMILES	Activity [1]	Activity [2]	Activity [3]	Activity [4]	Activity [5]	Activity [6]	inhibition [7]	inhibition [8]
C/C1=C\C[C@H](O)[C@@H](C)C[C@H]2OC(=O)[C@@H](C)C2CC1 (stereo partly specified)	Active	Active	inactive	inactive	inactive	inactive	Active	100%
C/C1=C\C[C@H](O)/C(C)=C/[C@H]2OC(=O)[C@@H](C)C2CC1 (stereo partly specified)	Active	inactive	inactive	inactive	inactive	inactive	Active	Active
